From patent US5877185A, “Synergistic compositions useful as anti-tumor agents” (priority 1995, dated 1999)
Like-named read-outs stand apart in the source and are kept apart here.

Columns and labels:
E ras cells = assay: cytostatic and cytocidal activity; format: cell-based, bovine; conditions: Bos taurus, average of three trials
Source text: pADPRT ligands that oxidize CCHC zinc fingers are not unique inhibitors of pADPRT. […] Hakam et al., FEBS Lett. 193:1-4 (1991). These ligands bind non-covalently to the nicotinamide site and internal DNA-seeking domains of pADPRT. Bauer et al., manuscript in preparation (1994). In contrast, CCHC-oxidizing ligands also bind non-covalently to the nicotinamide site, but initially attack the F1 zinc finger oxidatively. Id. […] Id. […] U.S. Ser. No. 08/076,313 filed Jun. 11, 1993.
Each value is the average of three trials. Each trial deviated from the average by no more than twenty percent. […] Another isomer of the iodo-nitro-benzamide series, 2-iodo-4-nitrobenzamide had no effect at the concentrations given above.

U 937 = assay: cytotoxicity of INO2 BA with and without BSO, U 937; format: cell-based; conditions: Homo sapiens, INO2 BA alone, 48 hours
Description: (§1) The concentration of BSO was 1 mM for all cell lines except HT 144, where the concentration was 0.25 mM. Cells were seeded in the recommended growth medium at a density of 1.5×10^4 cell/cm^2 into 2 cm^2 wells. Drugs were added simultaneously 4 hours after seeding, and incubation was continued for 48 hours at 37° C. in a 5% CO2 atmosphere. For assessment of drug effects cells were detached by trypsinization and counted in a hemacytometer.
(§2) Cell lines Nos. 1-4 were obtained from Dr. C. Benz, University of California, San Francisco. MDA 468 and MCF-7 human mammary cancer lines, MCF-7-B-ADR drug-resistant mammary cancer line, Du 145 drug-resistant human prostate cancer line, HT 144 human melanoma cell line, Hep-G2 human hepatocellular carcinoma line, and PC-12 rat pheochromocytoma line were obtained from the University of California Cell Culture Facility.

[1] = tested on: SIV 23686 (AZT-resistant); assay: AZT-resistant SIV propagation (syncytia formation), SIV 23686; format: cell-based; conditions: for Syncytia: BSO 0
Description: CEM × 174 (3 × 10^5 /ml) were infected with equal doses o
SIVmac239 or virus isolates from SIVmac239infected rhesus macaques (MMU
23686, 22803). Three days postinfection, INO2 BA concentrations
ranging from 0 to 300 μM with or without BSO were added, and incubated
for an additional 3 days. Cell cultures were then examined for syncytia
formation. The number of syncytia in cell cultures was counted in
arbitration fields under 40× magnification and scored as follows: […]

[2] = tested on: HIV in intact human macrophages; conditions: Kun et al., Abstract 422A; cited from earlier work
Du 145 = assay: cytotoxicity of INO2 BA with and without BSO, Du 145; format: cell-based; conditions: Homo sapiens
Description: as §1, §2

CEM-4 = assay: cytotoxicity of INO2 BA with and without BSO, CEM-4; format: cell-based; conditions: Homo sapiens
Description: as §1, §2

L 1210 = assay: cytotoxicity of INO2 BA with and without BSO, L 1210; format: cell-based, murine; conditions: Mus musculus, L1210, INO2 BA alone, 48 hours
Description: as §1, §2

[3] = tested on: SIV-infected CEM ×174 cells; assay: viability of SIV-infected CEM ×174 cells, tetrazolium (MTT) assay; format: cell-based, human; conditions: day 10
Source text: In both (A) and (B) the ordinate represents cell viability on day 10 of the assay and the abscissa represents the concentration of INO2 BA in the absence of BSO (FIG. 4A), and in the presence of BSO (FIG. 4B).
CEM ×174 cells (3×10^5 /ml) were infected with 3.75 TCID50 /ml (50% tissue culture infectious dosage per ml of cell suspension) stock solution of SIVmac239 or virus isolates from SIVmac239-infected rhesus macaques on day 0. Uniform infection of cells was ensured by the infection of one cell population only per virus preparation. Three days post-infection, the cells were distributed (500 μl/well) into individual wells of a 24-well plate. Fresh medium containing INO2 BA concentrations ranging from 0 to 300 μM and/or BSO concentrations ranging from 0 to 0.25 mM were added to establish final 1-ml reaction volumes, and the cultures were further incubated for 4 days. […] Cell viability and virus titers in the supernatant were determined on day 10 (3 days after the addition of new cells) by the tetrazolium (MTT) method of Hansen et al., J. Immunol. […]
The viability of infected and uninfected cell cultures was determined by the method of Hansen et al., J. Immunol. […] Following overnight incubation at 37° C., optical absorbance were measured at 570 nm using a microtiter plate reader (Molecular Devices Corp., Sunnyvale, Calif.).

[4] = tested on: L-1210 Murine Leukemia Cells; assay: effect of nitroso- and nitro-compounds in L-1210 murine leukemia cells (suspension); format: cell-based; conditions: drug exposure 18 hours
Description: II. I50 and LD100 Values for Nitroso- and Nitro-Compounds in (A) Mammary Cancer Cells (monolayer cultures) and in (B) L-1210 Murine Leukemia Cells (suspension culture).
Cells were seeded at 5×10^4 to 2×10^5 /ml; drugs were added at the time of seeding; drug exposure was for 18 hours.

## NC(=O)c1ccc(I)c([N+](=O)[O-])c1 [INO2 BA, 4-iodo-3-nitrobenzamide]
E ras cells; E ras cells, read-out: Cytostatic Effect I50
  IC50: 60 µM
E ras cells; with 0.8 mM BSO, read-out: Cytocidal Effect I50
  IC50: 4 µM
U 937; read-out: I50
  IC50: 65 µM
U 937; read-out: LD100
  IC100: 150 µM
[1]; INO2 BA 25 μM
  Syncytia: ++ (10-20)
[1]; INO2 BA 50 μM
  Syncytia: ++ (10-20)
[1]; INO2 BA 100 μM
  Syncytia: ++ (10-20)
[1]; INO2 BA 200 μM
  Syncytia: + (1-9)
[1]; INO2 BA 300 μM
  Syncytia: - (0)
[1]; Simian immunodeficiency virus, 72 h, read-out: INO2 BA concentration abolishing cell fusion (syncytia)
  IC100: > 200 µM
[1]; with 0.01 mM BSO
  inhibitory concentration of INO2 BA (syncytia): 50 µM
[2]
  inhibition of HIV replication: readily inhibited
Du 145; DU-145, 48 h, read-out: LD100
  IC100: 250 µM
Du 145; DU-145, INO2 BA alone, 48 hours, read-out: I50
  IC50: 120 µM
CEM-4; CEM-4, 48 h, read-out: LD100
  IC100: 196 µM
CEM-4; CEM-4, INO2 BA alone, 48 hours, read-out: I50
  IC50: 80 µM
L 1210; read-out: I50
  IC50: 128 µM
L 1210; read-out: LD100
  IC100: 256 µM
[3]
  apparent cell viability: protected

## NC(=O)c1cccc(N=O)c1 [NOBA, 3-nitrosobenzamide]
[4]
  I50: 7.5 nanomoles/10^5 cells
  LD100: 15 nanomoles/10^5 cells
